“And” between values parts separate entries of the source, which are not always exact repeats. Identical values can stand only once. “Also recorded” adds a separate entry of the source. Like-named read-outs stand apart in the source and are kept apart here. No end group written: not given here. Cys(S-Me) = S-methylated cysteine
Assays:
[1] = target: T1, thrombin (Homo sapiens, UniProt P00734); details: cited from earlier work
[2] = UV/vis spectroscopic interaction studies of PZ-derived peptides with heme; format: binding; details: peptide 10 µM; for heme binding on peptide level: heme 0.4-40 µM; for Kd: read-out: K D (heme-binding affinity of peptide)
Protocol: Heme binding to PZ‐derived peptides 1 –5 was analyzed by UV/vis spectroscopy, as previously reported for other protein‐derived peptides as well.^[ [18] ^, [19] ^, [35] ^, [43] ^, [44] ^] In brief, each peptide (10 µM) was incubated for 30 min with heme in 100 mM HEPES buffer (pH 7.0) for 30 min. Absorbance spectra were recorded in the range of 300–600 nm on a Infinite 200 Pro spectrophotometer. Difference spectra were generated by subtraction of the single absorbance data of heme and the peptide, respectively, from the data of the heme–peptide complex. Difference spectra were plotted with GraphPad Prism, version 10.5.0. K D values were calculated using the equation from Pîrnău and Bogdan (2008).^[ [45] ^]

[3] = target: T2, Human protein Z (PZ) (Homo sapiens, UniProt P22891); experiment: SPR binding of porphyrins to immobilized PZ (single-cycle kinetics); details: tested concentration range 187.5 nM – 12 µM
T2 construct: purchased CellSystems GmbH HCPZ-0220
Protocol: (§1) SPR experiments were conducted on a Biacore 8K instrument (Cytiva) to investigate the interaction of PZ with heme, as established before.^[ [19] ^, [35] ^, [37] ^, [43] ^] In brief, PZ (10 µg mL^−1) was dissolved in 10 mM sodium acetate buffer (pH 3.5) and immobilized onto a CM5 sensor chip via standard amine coupling, resulting in a final immobilization level of 767 RU. Heme (stock solution in 30 mM NaOH) was further diluted in running buffer (10 mM HEPES, 150 mM NaCl, and 0.05% Tween 20, pH 7.4). The same was performed with zinc (II) protoporphyrin IX and protoporphyrin IX (Frontier Scientific). Binding kinetics were assessed by injecting seven increasing concentrations of heme (187.5–12,000 nM) in a single‐cycle kinetics format at 25 °C and a flow rate of 30 µL min^−1. Data analysis was performed by global fitting using Biacore Insight Evaluation Software, version 3.0.12.15655 (Cytiva).

[4] = Substrate control of the chromogenic assay without thrombin; format: biochemical; details: no thrombin; heme 1 – 1000 nM, PZ 10 nM; thrombin = 100 %
Protocol: Herein, an earlier established chromogenic thrombin amidolytic activity assay system was thus used, inspired by Hogg and Stenflo.^[ [19] ^, [28] ^] PZ (final concentration: 10 nM) was first incubated for 30 min with different heme concentrations (final concentrations: 1–1000 nM). Afterward, the heme–PZ mixture was incubated with thrombin for 10 min and the PZ–thrombin mixture (50 µL; final thrombin concentration: 15 nM) was transferred onto a 96‐well plate (Greiner Bio‐One GmbH). Finally, 5 µL of the substrate solution (H‐D‐Phe‐Pip‐Arg‐pNA x 2 HCl (S‐2238); final concentration: 273 µM) was added. Immediately, kinetic measurements at 405 nm were started, using an Infinite 200 Pro spectrophotometer. Heme only, thrombin only, and PZ‐heme only served as controls. For evaluation, the thrombin activity was determined as the change of absorbance per second and always normalized against the basal thrombin activity without PZ. Data were analyzed as the mean of triplicate and the IC50 was calculated by nonlinear regression (GraphPad Prism, version 10.5.0). […]
thrombinheme (0 nM)heme (1 nM) thrombin heme (3.16 nM)heme (10 nM)heme (31.6 nM)heme (100 nM)heme (316 nM)heme (1000 nM)PZ+heme (0 nM)PZ+heme (1 nM) PZ+heme (3.16 nM)PZ+heme (10 nM)PZ+heme (31.6 nM)PZ+heme (100 nM)PZ+heme (316 nM)PZ+heme (1000 nM)
Figure S5. […]

[5] = target: PZ-dependent protease inhibitor (ZPI); design: method as in PMID 22786881, PMID 24960590; details: read-out: K D (PZ interaction with ZPI via peptidase-like domain); cited from earlier work
[6] = design: method as in PMID 27584039; details: read-out: K D (PZ interaction with phospholipid surfaces via Gla domain); cited from earlier work
[7] = test system: T3, human α-thrombin; experiment: Chromogenic thrombin amidolytic activity assay (S-2238); format: biochemical
T3 construct: human α‐thrombin (HCT‐0020); purchased CellSystems GmbH HCT-0020
Protocol: Herein, an earlier established chromogenic thrombin amidolytic activity assay system was thus used, inspired by Hogg and Stenflo.^[ [19] ^, [28] ^] PZ (final concentration: 10 nM) was first incubated for 30 min with different heme concentrations (final concentrations: 1–1000 nM). Afterward, the heme–PZ mixture was incubated with thrombin for 10 min and the PZ–thrombin mixture (50 µL; final thrombin concentration: 15 nM) was transferred onto a 96‐well plate (Greiner Bio‐One GmbH). Finally, 5 µL of the substrate solution (H‐D‐Phe‐Pip‐Arg‐pNA x 2 HCl (S‐2238); final concentration: 273 µM) was added. Immediately, kinetic measurements at 405 nm were started, using an Infinite 200 Pro spectrophotometer. Heme only, thrombin only, and PZ‐heme only served as controls. For evaluation, the thrombin activity was determined as the change of absorbance per second and always normalized against the basal thrombin activity without PZ. Data were analyzed as the mean of triplicate and the IC50 was calculated by nonlinear regression (GraphPad Prism, version 10.5.0).

[8] = target: thrombin; design: method as in PMID 2040612; details: read-out: K D (PZ direct binding to thrombin); cited from earlier work
[9] = target: T4, PZ (Homo sapiens, UniProt P22891); experiment: aPTT-based one-stage clotting assay: anticoagulant function of PZ against FXa in the presence of heme; format: biochemical
T4 construct: purchased CellSystems GmbH HCPZ-0220 (PZ); HCXA-0060 (FXa)
Protocol: To estimate an effect on molecular level, the structure of the PZ–ZPI complex (PDB: 3H5C^[ [42] ^]) was first inspected with heme attached to PZ. The anticoagulant function of PZ was then analyzed in the presence of heme by a one‐stage clotting assay, which was inspired by previous work from us and others.^[ [19] ^, [27] ^] The aPTT‐based assay was performed with the ball coagulometer KC 4 A (Amelung, Lemgo, Germany). PZ (320 nM) was preincubated with different concentrations of heme (0–100 µM) for 30 min in 1x PBS, pH 7.4. Afterward, 50 µL of the PZ–heme mixture was incubated with 50 µL of Actin FSL, 50 µl CaCl2 (30 mM), and 50 µL FXa (0.5 nM) at 37 °C for 3 min. Finally, 50 µL citrated pooled plasma was added and the clotting time was automatically recorded. The following mixtures served as controls: 1) 50 µL PBS‐heme + 50 µL Actin FSL + 50 µL CaCl2 + 50 µL FXa + 50 µL citrated plasma, 2) 50 µL PBS‐heme + 50 µL Actin FSL + 50 µL CaCl2 + 50 µL PBS + 50 µL citrated plasma, 3) 50 µL PZ–heme + 50 µL Actin FSL + 50 µL CaCl2 + 50 µL PBS + 50 µL citrated plasma, 4) 50 µL PZ‐PBS + 50 µL Actin FSL + 50 µL CaCl2 + 50 µL FXa + 50 µL citrated plasma, 5) 50 µL PZ‐PBS + 50 µL Actin FSL + 50 µL CaCl2 + 50 µL PBS + 50 µL citrated plasma, 6) 50 µL PBS + 50 µL Actin FSL + 50 µL CaCl2 + 50 µL FXa + 50 µL citrated plasma, and 7) 50 µL PBS + 50 µL Actin FSL + 50 µL CaCl2 + 50 µL PBS + 50 µL citrated plasma. Final concentrations in the approach were 6 mM CaCl2, 0–20 µM heme, 32 nM and PZ, 0.1 nM FXa. Data were normalized against the clotting time of citrated plasma only (control (7)) and evaluated as the mean of triplicates. The IC50 was determined by fitting the curves with nonlinear regression (GraphPad Prism, version 10.5.0).

[10] = test system: thrombin; design: method as in PMID 2040612; details: PZ:thrombin ratios of ≈1:9 to ≈5:1; cited from earlier work
[11] = target: ZPI (Homo sapiens) (UniProt Q9UK55); details: cited from earlier work
[12] = target: T1, thrombin; experiment: SPR binding of porphyrins to immobilized thrombin; design: human α‐thrombin (HCT‐0020); purchased CellSystems GmbH HCT-0020
Protocol: as §1
Figure S7. Heme binds to thrombin. For SPR analysis, thrombin (10 µg/ml) was dissolved in 10 mM sodium acetate buffer (pH 6.0) and immobilized onto a CM5 sensor chip via standard amine coupling, resulting in a final immobilization level of 1826.1 RU. Binding kinetics were assessed by injecting six increasing concentrations of heme (187.5 – 6,000 nM) in a single-cycle kinetics format at 25°C and a flow rate of […]
transient nature of heme binding to thrombin. […]

[13] = 100 mM HEPES pH 7.0, 30 min, stoichiometry 1:1

Sequence of ZPI (Homo sapiens) (Q9UK55 22-444): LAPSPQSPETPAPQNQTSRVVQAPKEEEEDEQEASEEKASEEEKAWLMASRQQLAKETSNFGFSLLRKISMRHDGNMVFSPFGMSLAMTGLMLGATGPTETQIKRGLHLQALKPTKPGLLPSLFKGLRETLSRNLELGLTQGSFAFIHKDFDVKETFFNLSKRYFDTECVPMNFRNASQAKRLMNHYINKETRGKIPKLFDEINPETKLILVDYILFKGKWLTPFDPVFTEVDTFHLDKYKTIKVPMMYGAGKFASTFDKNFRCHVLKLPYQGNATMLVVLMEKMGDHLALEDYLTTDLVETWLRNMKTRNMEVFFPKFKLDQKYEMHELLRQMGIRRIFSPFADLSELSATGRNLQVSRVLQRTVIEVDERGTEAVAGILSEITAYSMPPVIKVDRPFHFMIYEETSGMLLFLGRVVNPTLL

Protein Z (from UniProt P22891)
Kd [1]: 130 nM

VTREHRGSW [Peptide 5, PZ-derived peptide around H321, positions 317 - 325]
heme binding on peptide level [2]: did not bind heme

IKITHVHVHMRYD [Peptide 4, PZ-derived peptide around H206/H208/H210, positions 202 - 214]
Kd [2, 13]: 790 ± 360 nM | heme binding on peptide level [2]: bound heme

C=CC1=C(C)c2cc3[n-]c(cc4[n-]c(cc5nc(cc1n2)C(C)=C5C=C)c(C)c4CCC(=O)O)c(CCC(=O)O)c3C.[Zn+2] [zinc protoporphyrin IX]
binding to PZ [3]: did not bind

C(Me)SLLHRNITVKTYFNRT ({Cys(S-Me)}-SLLHRNITVKTYFNRT) [Peptide 3, PZ-derived peptide around H183/Y191 with methylated cysteine, positions 179 - 195]
Kd [2, 13]: 1130 ± 500 nM | heme binding on peptide level [2]: bound heme

PZ: Human protein Z, vitamin-K-dependent glycoprotein, anticoagulant cofactor; obtained from CellSystems GmbH
relative amidolytic activity toward substrate S-2238 [4]: ~ 0% | Kd [5]: ~1 nM | Kd [6]: ~48000 nM | amidolytic activity of thrombin at highest PZ concentration ([7]; PZ 1 µM, ratio ≈30:1 PZ:thrombin): ≈ 140% | inhibitory effect toward the amidolytic activity of thrombin ([7]; PZ:thrombin ratios of 1:15 to 21:1, without heme): ≈ 20% and 20% | remaining amidolytic activity of thrombin ([7]; PZ:thrombin ratios of 1:30 to ≈10:1, thrombin 30 nM): ≈ 5080% | Kd [8]: 110 to 150 nM | impact alone on the procoagulant function of FXa or on clotting of pure plasma (aPTT) ([9]; controls, heme 0.06 – 20 µM, PZ 32 nM, FXa 0.1 nM): not significantly influenced; also recorded: did not exert any significant impact | effect of PZ on the procoagulant effect of FXa ([9]; without heme): block the procoagulant effect of FXa completely | inhibition of the activity of thrombin in the presence of PZ [10]: ≈ 20%

FWRRYKGGS [Peptide 1]
Kd [2, 13]: 1040 ± 360 nM | heme binding on peptide level [2]: bound heme

AKNEC(Me)HPERT [Peptide 2]
K D (heme-binding affinity of peptide) [2, 13]: n.b. | heme binding on peptide level [2]: did not bind heme

Protein Z peptidase-like domain (from UniProt P22891)
Kd [11]: 1 nM

C=CC1=C(C)c2cc3[nH]c(cc4nc(cc5[nH]c(cc1n2)c(C)c5CCC(=O)O)C(CCC(=O)O)=C4C)c(C)c3C=C [protoporphyrin IX]
Kd ([12]; heterogeneous ligand model, read-out: KD1 (porphyrin binding to thrombin)): 150 nM | Kd ([12]; read-out: KD2 (porphyrin binding to thrombin)): 2200 nM | binding to PZ [3]: did not bind

From PMC12781162, “Human Protein Z as the Second Known Heme‐Binding Protein from the Endogenous Blood Coagulation Inhibitor System” (Chembiochem, 2025)
